# Results from ChEMBL document CHEMBL1124209, “Phosphonoformate and phosphonoacetate derivatives of 5-substituted 2'-deoxyuridines: synthesis and antiviral activity” (1988).
# Experiments:
# Format in all cases: functional
# [1] = system: Human alphaherpesvirus 1; test: Minimum inhibitory concentration causing 25% inhibition of cytopathic effect induced by Herpes simplex virus(HSV) -1 (thymidine kinase deficient) in vero cells
# [2] = species: Oryctolagus cuniculus; test: Minimum cytotoxic concentration causing toxic effects on uninfected cells in rabbit
# [3] = system: Human alphaherpesvirus 2; test: Minimum inhibitory concentration causing 25% inhibition of cytopathic effect induced by Herpes simplex virus(HSV) -2 (thymidine kinase deficient) in HEp-2 cells
# [4] = system: Human alphaherpesvirus 1; test: Cumulative mortality in percent of HSV-1 infected mice, after peroral administration of 10 mg/kg of compound; conditions: route oral
# [5] = system: Human alphaherpesvirus 1; test: Mean survival time in HSV-1 infected mice, after peroral administration of 10 mg/kg of compound; conditions: route oral
# [6] = system: Human alphaherpesvirus 1; test: Cumulative mortality in percent of HSV-1 infected mice, after intraperitoneal administration of 5 mg/kg of compound
# [7] = system: Mus musculus; test: Mean duration of lesions in HSV-1 infected mice, after administration of 0.3 % of compound intracutaneously
# [8] = system: Human alphaherpesvirus 2; test: Minimum inhibitory concentration causing 25% inhibition of cytopathic effect induced by Herpes simplex virus(HSV) -2 (thymidine kinase deficient) in vero cells
# [9] = system: Human alphaherpesvirus 1; test: Minimum inhibitory concentration causing 25% inhibition of cytopathic effect induced by Herpes simplex virus-1 (Brand) in vero cells
# [10] = system: Human alphaherpesvirus 1; test: Mean survival time in HSV-1 infected mice, after intraperitoneal administration of 5 mg/kg of compound
# [11] = system: Human alphaherpesvirus 1; test: Minimum inhibitory concentration causing 25% inhibition of cytopathic effect induced by herpes simplex virus (HSV)-1 (K979) in vero cells.
# [12] = system: Human alphaherpesvirus 1; test: Minimum inhibitory concentration causing 25% inhibition of cytopathic effect induced by Herpes simplex virus-1 (K979) in HEp-2 cells
# [13] = system: Human alphaherpesvirus 1; test: Minimum inhibitory concentration causing 25% inhibition of cytopathic effect induced by Herpes simplex virus(HSV) -1 (thymidine kinase deficient) in HEp-2 cells
# [14] = system: Human alphaherpesvirus 1; test: Mean survival time in HSV-1 infected mice, after intraperitoneal administration of 1 mg/kg of compound
# [15] = system: Mus musculus; test: Cumulative lesions in HSV-1 infected mice, after administration of 0.1 % of compound intracutaneously
# [16] = system: Human alphaherpesvirus 1; test: Cumulative mortality in percent of HSV-1 infected mice, after intraperitoneal administration of 1 mg/kg of compound
# [17] = system: Mus musculus; test: Cumulative lesions in HSV-1 infected mice, after administration of 0.3 % of compound intracutaneously
# [18] = system: Human alphaherpesvirus 1; test: Minimum inhibitory concentration causing 25% inhibition cytopathic effect induced by Herpes simplex virus-1 (Brand) in HEp-2 cells
# [19] = system: Human alphaherpesvirus 1; test: Cumulative mortality in percent of HSV-1 infected mice, after intraperitoneal administration of 0.5 mg/kg of compound
# [20] = system: Human alphaherpesvirus 1; test: Cumulative mortality in percent of HSV-1 infected mice, after peroral administration of 1 mg/kg of compound; conditions: route oral
# [21] = system: Human alphaherpesvirus 1; test: Mean survival time in HSV-1 infected mice, after intraperitoneal administration of 0.5 mg/kg of compound
# [22] = system: Human alphaherpesvirus 1; test: Mean survival time in HSV-1 infected mice, after peroral administration of 1 mg/kg of compound; conditions: route oral
# [23] = system: Human alphaherpesvirus 1; test: Cumulative mortality in percent of HSV-1 infected mice, after peroral administration of 5 mg/kg of compound; conditions: route oral
# [24] = system: Human alphaherpesvirus 1; test: Mean survival time in HSV-1 infected mice, after peroral administration of 5 mg/kg of compound; conditions: route oral
# [25] = system: Mus musculus; test: Mean duration of lesions in HSV-1 infected mice, after administration of 0.1 % of compound intracutaneously
# [26] = system: Human alphaherpesvirus 2; test: Minimum inhibitory concentration causing 25% inhibition cytopathic effect induced by Herpes simplex virus(HSV) -2 (thymidine kinase deficient) in vero cells
# [27] = system: Human alphaherpesvirus 1; test: Minimum inhibitory concentration causing 25% inhibition cytopathic effect induced by Herpes simplex virus(HSV) -1 (thymidine kinase deficient) in HEp-2 cells
# [28] = system: Mus musculus; test: Cumulative mortality in percent of HSV-1 infected mice, after peroral administration of 100 mg/kg of compound; conditions: route oral
# [29] = system: Mus musculus; test: Cumulative mortality in percent of HSV-1 infected mice, after intraperitoneal administration of 25 mg/kg
# [30] = system: Mus musculus; test: Mean survival time in HSV-1 infected mice, after intraperitoneal administration of 25 mg/kg
# [31] = system: Mus musculus; test: Mean survival time in HSV-1 infected mice, after peroral administration of 100 mg/kg; conditions: route oral
# [32] = system: Human alphaherpesvirus 1; test: Minimum inhibitory concentration causing 50% inhibition of cytopathic effect induced by HSV-1 in PRK cells
# [33] = system: Human alphaherpesvirus 2; test: Minimum inhibitory concentration causing 50% inhibition of cytopathic effect induced by HSV-2 in PRK cells
# [34] = system: Human alphaherpesvirus 1; test: Minimum inhibitory concentration causing 50% inhibition of cytopathic effect induced by HSV-1(thymidine kinase deficient) in PRK cells
# [35] = system: Human alphaherpesvirus 1; test: Minimum inhibitory concentration causing 50% inhibition of cytopathic effect induced by HSV-1 (thymidine kinase deficient) in PRK cells
# [36] = species: Oryctolagus cuniculus; test: Minimum cytotoxic concentration of compound causing toxic effects on uninfected cells
# [37] = system: Human alphaherpesvirus 2; test: Minimum inhibitory concentration causing 25% inhibition cytopathic effect induced by Herpes simplex virus(HSV) -2 (thymidine kinase deficient) in HEp -2 cells
# [38] = system: Human alphaherpesvirus 2; test: Minimum inhibitory concentration of compound causing 50% inhibition of cytopathic effect induced by HSV-2 in PRK cells
# [39] = system: Human alphaherpesvirus 1; test: Minimum inhibitory concentration of compound causing 50% inhibition of cytopathic effect induced by HSV-1 (thymidine kinase deficient) in PRK cells
# [40] = system: Human alphaherpesvirus 1; test: Minimum inhibitory concentration of compound causing 50% inhibition of cytopathic effect induced by HSV-1 in PRK cells
Structure (SMILES),MIC [1] [µM],MTC [2] [µM],MIC [3] [µM],MIC [8] [µM],MIC [9] [µM],MIC [11] [µM],MIC [12] [µM],MIC [13] [µM],MIC [18] [µM],also measured
CCOC(=O)CP(=O)(OC)OC[C@H]1O[C@@H](n2cc(CCCl)c(=O)[nH]c2=O)C[C@@H]1O (some centres not stated),66,726,> 220,> 220,6.6,> 220,> 220,> 220,66,CMP [4]: 67; MST [5]: 11.5 days; CMP [6]: 83; MDL [7]: 6 days; MST [10]: 11.8 days; MST [14]: 11.9 days; lesions [15]: 83; CMP [16]: 92; lesions [17]: 58; CMP [19]: 58; CMP [20]: 100; MST [21]: 13.9 days; MST [22]: 8.9 days; CMP [23]: 75; MST [24]: 12.8 days; MDL [25]: 10.6 days
CCOC(=O)P(=O)(OC)OC[C@H]1O[C@@H](n2cc(I)c(=O)[nH]c2=O)C[C@@H]1O (some centres not stated),19.8,198,5.9,–,0.6,5.9,5.9,–,2,MIC [26]: 5.9 µM; MIC [27]: 2 µM
CCOC(=O)P(=O)(OC)OC[C@H]1O[C@@H](n2cc(CCCl)c(=O)[nH]c2=O)C[C@@H]1O (some centres not stated),68.1,749,> 227,> 227,0.7,227,22.7,> 227,0.7,CMP [4]: 13; MST [5]: 18.9 days; CMP [6]: 0; MDL [7]: 1.4 days; MST [10]: 20 days; MST [14]: 15.6 days; lesions [15]: 33; CMP [16]: 42; lesions [17]: 17; CMP [19]: 33; CMP [20]: 63; MST [21]: 16.7 days; MST [22]: 13.9 days; CMP [23]: 38; MST [24]: 16 days; MDL [25]: 3.3 days
Nc1nc2c(ncn2COCCO)c(=O)[nH]1 [ACYCLOVIR],44,440,440,132,0.01,1.3,13.2,440,4.4,CMP [28]: 10; CMP [29]: 15; MST [30]: 18.6 days; MST [31]: 18.9 days
O=c1[nH]c(=O)n([C@H]2C[C@H](O)[C@@H](CO)O2)cc1/C=C/Br [BRIVUDINE],–,>1302,–,–,–,–,–,–,–,MIC [32]: 0.07 µM; CMP [28]: 30; MIC [33]: 32.6 µM; MIC [34]: 1300 µM
O=C(O)P(=O)(O)O [FOSCARNET],79.4,2.619,–,79.4,238,238,238,794,794,MIC [32]: 238 µM; MIC [33]: 159 µM; MIC [35]: 317 µM; MTC [36]: >3174 µM; MIC [37]: 238 µM
O=C(O)CP(=O)(O)O [FOSFONET],71.4,2.356,214,71.4,71.4,71.4,71.4,214,214,MIC [38]: 143 µM; MTC [36]: >2856 µM; MIC [39]: 286 µM; MIC [40]: 286 µM
O=c1[nH]c(=O)n([C@H]2C[C@H](O)[C@@H](CO)O2)cc1I [IDOXURIDINE],8.4,281,8.4,–,0.3,2.8,0.8,–,0.8,MIC [26]: > 281 µM; MIC [27]: 0.8 µM
